In PubChem BioAssay AID1272 (The Scripps Research Institute Molecular Screening Center, 2008):
Activity calls are given as the source filed them. How the calls were made is not given here.

Biological target: Neuropeptide Y receptor type 2 (Homo sapiens) (UniProt P49146)
Assay: IC50 of human NPY-Y2 blockers – cell-based, dose response (AID 1272)
Conditions: NPY-Y2 expressing cells, antagonist inhibition read-out

Chain of Neuropeptide Y receptor type 2 (Homo sapiens) (P49146 whole entry, looked up): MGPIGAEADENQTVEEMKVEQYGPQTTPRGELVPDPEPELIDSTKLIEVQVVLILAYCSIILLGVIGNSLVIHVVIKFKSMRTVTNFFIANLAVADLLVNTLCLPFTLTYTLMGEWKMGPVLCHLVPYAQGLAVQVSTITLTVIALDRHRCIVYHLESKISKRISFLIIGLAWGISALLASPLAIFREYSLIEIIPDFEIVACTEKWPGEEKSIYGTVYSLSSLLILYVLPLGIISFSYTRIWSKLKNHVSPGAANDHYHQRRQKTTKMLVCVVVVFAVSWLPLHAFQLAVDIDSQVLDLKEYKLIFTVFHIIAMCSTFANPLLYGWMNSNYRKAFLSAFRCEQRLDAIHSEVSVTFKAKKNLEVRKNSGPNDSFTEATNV

IC50: < 35 µM (inactive)
SMILES: Cc1cccc(CSCCNC(=O)COc2ccc(Cl)cc2)c1
